Each structure is given as a SMILES string. pEC50: −log10 of the molar value. Structures can show the parent of a compound that is named as a salt.

In this assay the target is T1, hNPRA (Homo sapiens, UniProt P16066).
T1 construct: expressed in transfected cells
T1 sequence (P16066 33-1061): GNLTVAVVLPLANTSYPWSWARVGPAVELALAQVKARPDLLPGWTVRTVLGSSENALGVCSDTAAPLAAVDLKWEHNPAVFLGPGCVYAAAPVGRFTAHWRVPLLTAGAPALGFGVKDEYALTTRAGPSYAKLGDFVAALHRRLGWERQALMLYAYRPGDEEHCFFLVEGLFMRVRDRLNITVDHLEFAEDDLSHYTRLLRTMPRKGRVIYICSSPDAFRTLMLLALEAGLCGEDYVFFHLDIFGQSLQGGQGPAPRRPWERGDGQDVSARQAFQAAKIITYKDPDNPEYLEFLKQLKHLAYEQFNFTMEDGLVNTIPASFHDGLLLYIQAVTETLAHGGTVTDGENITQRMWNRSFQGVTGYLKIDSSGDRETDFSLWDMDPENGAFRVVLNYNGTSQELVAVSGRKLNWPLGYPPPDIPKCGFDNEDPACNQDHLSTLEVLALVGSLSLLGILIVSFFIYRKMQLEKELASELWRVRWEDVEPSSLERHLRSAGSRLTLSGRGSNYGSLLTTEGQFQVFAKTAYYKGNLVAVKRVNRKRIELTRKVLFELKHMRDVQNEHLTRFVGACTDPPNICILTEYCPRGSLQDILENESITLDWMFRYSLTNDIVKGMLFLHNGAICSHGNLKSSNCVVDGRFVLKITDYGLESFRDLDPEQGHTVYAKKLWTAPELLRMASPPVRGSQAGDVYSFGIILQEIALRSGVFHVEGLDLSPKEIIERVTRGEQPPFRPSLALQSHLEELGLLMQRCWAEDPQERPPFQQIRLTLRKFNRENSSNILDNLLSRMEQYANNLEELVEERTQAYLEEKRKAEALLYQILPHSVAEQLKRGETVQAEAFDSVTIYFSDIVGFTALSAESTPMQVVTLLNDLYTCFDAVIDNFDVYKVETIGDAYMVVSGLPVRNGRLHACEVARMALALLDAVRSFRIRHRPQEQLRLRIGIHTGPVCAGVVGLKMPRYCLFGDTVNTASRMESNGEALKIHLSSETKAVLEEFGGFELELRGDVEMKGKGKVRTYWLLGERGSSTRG
As to the kind of experiment: NPRA Functional Cell Assay (cGMP HTRF, NPRA HEK JumpIn stable cells). Type of assay: cell-based. Particulars: cGMP production, 1 hour at 37° C., 10-point dose response. The text has this:
NPRA Functional Cell Assay
Assay Buffer components HEPES and Opti-MEM® I Reduced-Serum with Glutamine (no phenol red) were from Gibco/Invitrogen (Thermo Fisher Scientific, Waltham, MA USA). 3-Isobutyl-1-methylxanthine (IBMX) and 4-(3-Butoxy-4-methoxybenzyl) imidazolidin-2-one (RO20) were obtained from Sigma-Aldrich (St. Louis, MO, USA). DPBS (Dulbecco's phosphate-buffered saline) without Ca2+ and Mg2+ was purchased from GE Healthcare Bio-Sciences (Pittsburgh, PA, USA). 384 well white Optiplates were from Perkin Elmer (Atlantic Highlands, NJ, USA). Human ANP (Atrial Natriuretic Peptide) (1-28) was purchased from Sigma-Aldrich (Catalog #A1663) and rat ANP (1-28) from Bachem (Torrance, CA, USA) (Catalog #H2100). Human-BNP (Human-Brain Natriuretic Peptide) (1-32 AA) was purchased from American Peptide Company (Sunnyvale, CA, USA) (product No. 14-1-90). cGMP kits were purchased from Cisbio. The assay ready frozen (ARF) Human/rat/dog NPRA HEK JumpIn Stable frozen cells (low passage number 5-11) were prepared in-house.
Test compounds were titrated in DMSO in a 10-point dose response in a separate step followed by a 100-fold dilution into the reaction. Positive response for each assay was determined using 10 nM rat-ANP peptide (rat cells) or 50 nM h-ANP peptide (human and dog cells).
Cells were thawed, washed with DPBS and resuspended in assay buffer (Opti-MEM+Glutamine, phenol red free media, 10 mM HEPES, 100 uM IBMX and 100 uM RO20) that was warmed to 37° C. Cells were then transferred to microplates via a Microplate Combi dispenser at a density of 1500, 400 and 1200 cells/well for human, rat and dog cells respectively, followed by acoustic transfer (Echo) of compound.
Compounds and cells were incubated at 37° C. with 5% CO2 for 1 hour, after which the cells were lysed and cGMP was captured using a CisBio cGMP HTRF assay kit. The TRF signal was measured with an Envision plate reader (emission set to 615 and 665 nm) after 1 hour incubation at ambient temperature. The TRF signal was converted to [cGMP] through the use of a cGMP calibration curve on each microplate. EC50's were generated from the resulting dose response curves by use of a 4 parameter logistic algorithm.
Assay Buffer components HEPES and Opti-MEM® I Reduced-Serum with Glutamine (no phenol red) were from Gibco/Invitrogen. 3-Isobutyl-1-methylxanthine (IBMX) and 4-(3-Butoxy-4-methoxybenzyl) imidazolidin-2-one (RO20) were obtained from Sigma. DPBS (Dulbecco's phosphate-buffered saline) without Ca2+ and Mg2+ was purchased from GE Healthcare Bio-Sciences (Pittsburgh, PA, USA). 384 well white Optiplates were from Perkin Elmer (Atlantic Highlands, NJ, USA). Human ANP (1-28) was purchased from Sigma (A1663) and rat ANP (1-28) from Bachem (H2100). Human-BNP (1-32 AA) was purchased from American Peptide Company (Sunnyvale, CA, USA) (product No. 14-1-90). cGMP kits were purchased from Cisbio (Bedford, MA, USA). The assay ready frozen (ARF) Human/rat/dog NPRA HEK JumpIn Stable frozen cells (low passage number 5-11) were prepared in-house.
Compounds and cells were incubated at 37° C. with 5% CO2 for 1 hour, after which the cells were lysed and cGMP was captured using a CisBio cGMP HTRF assay kit. The TRF signal was measured with an Envision® plate reader (Perkin Elmer) (emission set to 615 and 665 nm) after 1 hour incubation at ambient temperature. The TRF signal was converted to [cGMP] through the use of a cGMP calibration curve on each microplate. EC50's were generated from the resulting dose response curves by use of a 4 parameter logistic algorithm.
hNPRA EC50 (nM) were determined for the compounds of Example 1 through Example 273 and are reported in the Experimental section of this application.
For orientation: TR-FRET usually uses a lanthanide donor and a delayed reading to cut background.
For `CC(C)(C)[C@H]1CCc2nc3sc(C(=O)N[C@H](CCN[C@H]4C[C@@H](CO)[C@H](O)[C@@H]4O)c4ccc(-c5ccc(=O)[nH]c5)cc4)cc3cc2C1` (racemic) [Example 26, [rac-(1S,2R,3S,4S)-2,3-dihydroxy-4-(hydroxymethyl)cyclopentyl]-[rac-(3R)-3-[4-(6-oxo-1H-pyridin-3-yl)phenyl]-3-[rac-(6S)-6-tert-butyl-5,6,7,8-tetrahydrothieno[2,3-b]quinoline-2-carbonyl]amino]propyl] ammonium;formate], the negative-log EC50 (pEC50) (in general, the negative decadic logarithm of the EC50, by convention in mol/L) was 6.41.
With `CC(C)(C)C1CCc2nc3sc(C(=O)NC(CCN4CC5C(CO)C5C4)c4ccc(-c5ccc(=O)[nH]c5)cc4)cc3cc2C1` (racemic) [Example 27, rac-(6S)-6-tert-butyl-N-[rac-(1R)-3-[6-(hydroxymethyl)-3-azoniabicyclo[3.1.0]hexan-3-yl]-1-[4-(6-oxo-1H-pyridin-3-yl)phenyl]propyl]-5,6,7,8-tetrahydrothieno[2,3-b]quinoline-2-carboxamide;formate], the pEC50 was 6.39.
`CN(C)C1CCN(CCC(NC(=O)c2cc3cc4c(nc3s2)CCC(C(C)(C)C)C4)c2ccc(-c3ccc(=O)[nH]c3)cc2)CC1` (racemic) [Example 28, dimethyl-[1-[rac-(3R)-3-[4-(6-oxo-1H-pyridin-3-yl)phenyl]-3-[[rac-(6S)-6-tert-butyl-5,6,7,8-tetrahydrothieno[2,3-b]quinoline-2-carbonyl]amino]propyl]-4-piperidyl]ammonium;formate] showed a pEC50 of 6.35.
The result for `CC(C)(C)[C@H]1CCc2nc3sc(C(=O)N[C@H](CCN4CCC(n5cnnc5)CC4)c4ccc(-c5ccc(=O)[nH]c5)cc4)cc3cc2C1` (racemic) [Example 29, rac-(6S)-6-tert-butyl-N-[rac-(1R)-1-[4-(6-oxo-1H-pyridin-3-yl)phenyl]-3-[4-(1,2,4-triazol-4-yl)piperidin-1-ium-1-yl]propyl]-5,6,7,8-tetrahydrothieno[2,3-b]quinoline-2-carboxamide;formate] reads 6.35; that for `CC(C)(C)[C@H]1CCc2nc3sc(C(=O)N[C@H](CCN4CCCCC4CO)c4ccc(-c5ccc(=O)[nH]c5)cc4)cc3cc2C1` (mixture of isomers) [Example 30, rac-(6S)-6-tert-butyl-N-[rac-(1R)-3-[2-(hydroxymethyl)piperidin-1-ium-1-yl]-1-[4-(6-oxo-1H-pyridin-3-yl)phenyl]propyl]-5,6,7,8-tetrahydrothieno[2,3-b]quinoline-2-carboxamide;formate], 6.34.
Compound `CC(C)(C)[C@H]1CCc2nc3sc(C(=O)N[C@H](CCN4CCC[C@H](O)[C@H]4CO)c4ccc(-c5ccc(=O)[nH]c5)cc4)cc3cc2C1` (racemic) [Example 31, rac-(6S)-6-tert-butyl-N-[rac-(1R)-1-[4-(6-oxo-1H-pyridin-3-yl)phenyl]-3-[rac-(2R,3S)-3-hydroxy-2-(hydroxymethyl)piperidin-1-ium-1-yl]propyl]-5,6,7,8-tetrahydrothieno[2,3-b]quinoline-2-carboxamide; formate] had a pEC50 of 6.33.
In turn, `CC(C)(C)[C@H]1CCc2nc3sc(C(=O)N[C@H](CCN4CCCCC4)c4ccc(-c5ccc(O)nc5)cc4)cc3cc2C1` (racemic) [Example 32, rac-(6S)-6-tert-butyl-N-[rac-(1R)-1-[4-(6-oxo-1H-pyridin-3-yl)phenyl]-3-piperidin-1-ium-1-yl-propyl]-5,6,7,8-tetrahydrothieno[2,3-b]quinoline-2-carboxamide;formate] showed a pEC50 of 6.32.
`CC(C)(C)[C@H]1CCc2nc3sc(C(=O)N[C@H](CCN4CCCC4)c4ccc(-c5ccc(=O)[nH]c5)cc4)cc3cc2C1` (racemic) [Example 33, rac-(6S)-6-tert-butyl-N-[rac-(1R)-1-[4-(6-oxo-1H-pyridin-3-yl)phenyl]-3-pyrrolidin-1-ium-1-yl-propyl]-5,6,7,8-tetrahydrothieno[2,3-b]quinoline-2-carboxamide;formate] had a negative logarithm of the EC50 (pEC50) of 6.29.
For the compound `CC(C)(C)[C@H]1CCc2nc3sc(C(=O)N[C@H](CCN(CCO)CCO)c4ccc(-c5ccc(=O)[nH]c5)cc4)cc3cc2C1` (racemic) [Example 34, rac-(6S)-6-tert-butyl-N-[rac-(1R)-3-[bis(2-hydroxyethyl)amino]-1-[4-(6-oxo-1H-pyridin-3-yl)phenyl]propyl]-5,6,7,8-tetrahydrothieno[2,3-b]quinoline-2-carboxamide], the pEC50 was 6.28.
For the compound `CC(C)(C)[C@H]1CCc2nc3sc(C(=O)N[C@H](CCN4CCC(n5ncnn5)CC4)c4ccc(-c5ccc(=O)[nH]c5)cc4)cc3cc2C1` (racemic) [Example 35, rac-(6S)-6-tert-butyl-N-[rac-(1R)-1-[4-(6-oxo-1H-pyridin-3-yl)phenyl]-3-[4-(tetrazol-2-yl)piperidin-1-ium-1-yl]propyl]-5,6,7,8-tetrahydrothieno[2,3-b]quinoline-2-carboxamide;formate], the pEC50 is 6.27.
Take `CC(C)(C)[C@H]1CCc2nc3sc(C(=O)N[C@H](CCNC4CCOCC4)c4ccc(-c5ccc(=O)[nH]c5)cc4)cc3cc2C1` (racemic) [Example 36, [rac-(3R)-3-[4-(6-oxo-1H-pyridin-3-yl)phenyl]-3-[rac-(6S)-6-tert-butyl-5,6,7,8-tetrahydrothieno[2,3-b]quinoline-2-carbonyl]amino]propyl]-tetrahydropyran-4-yl-ammonium;formate]: the negative-log EC50 (pEC50) was 6.25.
Regarding `CC(C)(C)[C@H]1CCc2nc3sc(C(=O)N[C@H](CCN[C@@H]4C[C@@H](O)[C@@H](O)C4)c4ccc(-c5ccc(=O)[nH]c5)cc4)cc3cc2C1` (racemic) [Example 37, [rac-(3R,4S)-3,4-dihydroxycyclopentyl]-[rac-(3R)-3-[4-(6-oxo-1H-pyridin-3-yl)phenyl]-3-[[rac-(6S)-6-tert-butyl-5,6,7,8-tetrahydrothieno[2,3-b]quinoline-2-carbonyl]amino]propyl] ammonium;formate], the pEC50 is 6.24.

Values taken from patent US12440496B2, “Natriuretic peptide receptor a agonists useful for the treatment of cardiometabolic diseases, kidney disease and diabetes” (Merck Sharp & Dohme LLC, priority 2019, dated 2025).
